Experimental data: patent US20140011706A1, “SURFACE DISPLAY OF PO[…] METAL PORPHYRIN OR A FLAVIN” (Autodisplay Biotech GMBH, priority 2010, published 2014)
Read-outs that look alike come from different tables or passages of the source.

Tests used:
CYP106A2 [1] = molecular target: T1, CYP106A2 (Priestia megaterium, UniProt Q06069)
CYP106A2 [2] = molecular target: T1, CYP106A2; assay: NADPH consumption of cells displaying CYP106A2 in the presence of imipramine (N-demethylation); format: biochemical, E. coli BL21(DE3); set-up: expressed in transfected cells; host or cells: E. coli BL21(DE3) pET-CYP13, induced with 1 mM IPTG; settings: imipramine 2.5 μM, NADPH 200 μM, BL21(DE3) pETCYP13 cells OD578=2.5, Adx and AdR added
Procedure: The cells were prepared as described in Example 1. Redox equivalents are transferred from NADPH via the proteins AdR and Adx to the converting enzyme.
The reaction mixture contained in a total volume of 0.2 mL Hepes buffer (50 mM, 0.05% Tween20, pH 7.4), imipramine (2.5 μM), Adx ([…]), AdR (0.5 μM), NADPH (200 μM) and cells of E. coli BL21(DE3) or BL21(DE3) pETCYP13 corresponding to an OD578=2.5.
The by-product formalin (cf. FIG. 17) has been photometrically identified to be produced by the cells displaying CYP106A2, but not in the control cells (data not shown).

[3] = E. coli BL21(DE3) pETCYP13 whole cells, induced with 1 mM IPTG, Adx and AdR added

Row | Compound | product formation from substrate (HPLC product peak) (CYP106A2 [1]; BL21(DE3) pETCYP13 whole cells, 1 mM IPTG, without addition of Adx) | product formation from substrate (HPLC product peak) (CYP106A2 [1]; [3]) | amount of product 15β-deoxycorticosterone (HPLC) (CYP106A2 [1]; TolC negative strain JW5503-1 (DE3) pETCYP13 compared with TolC positive BL21(DE3) pETCYP13, IPTG induced) | conversion indicated by NADPH consumption difference versus control cells (CYP106A2 [2])
1 | C[C@]12CC[C@H]3[C@@H](CCC4=CC(=O)CC[C@@]43C)[C@@H]1CC[C@@H]2C(=O)CO [11-deoxycorticosterone] | no product peak | resulted in a product peak | decreased | 
2 | CC(C)C1=CC2=CC[C@@H]3[C@](C)(CCC[C@@]3(C)C(=O)O)[C@H]2CC1 [abietic acid] |  | a product occurred at the expected retention time |  | 
3 | CN(C)CCCN1c2ccccc2CCc2ccccc21 [imipramine] |  |  |  | conversion of imipramine into desipramine
